Series [1] has as its system KB. The series can be described thus: Cytotoxicity against drug-resistant human KB cells in presence of vinblastine. In kind it is functional. As to conditions: read-out: ED50 (the source's name).
The test system of series [2] is SK-N-SH. As to the kind of experiment: Cytotoxicity against human SKNSH cells. The settings on record: read-out: ED50 (the source's name). In kind it is functional.
Series [3] deals with KB. As to the kind of experiment: Cytotoxicity against drug-resistant human KB cells in absence of vinblastine. The settings on record: read-out: ED50 (the source's name). The class given is functional.
Series [4] has as its system Lu1. As to the kind of experiment: Cytotoxicity against human Lu1 cells. In kind it is functional. As to conditions: read-out: ED50 (the source's name).
The test system of series [5] is Col2. As to the kind of experiment: Cytotoxicity against human Col2 cells. As to conditions: read-out: ED50 (the source's name). The class given is functional.
The test system of series [6] is SW626. As to the kind of experiment: Cytotoxicity against human SW626 cells. As to conditions: read-out: ED50 (the source's name). The class given is functional.
The nature of series [7]: Cytotoxicity against human BC1 cells. In kind it is functional. The settings on record: read-out: ED50 (the source's name).
Series [8] deals with LNCaP. The series can be described thus: Cytotoxicity against human LNCaP cells. The class given is functional. The settings on record: read-out: ED50 (the source's name).
Series [9] relates to KB. The series can be described thus: Cytotoxicity against human KB cells. In kind it is functional. The settings on record: read-out: ED50 (the source's name).
In series [10] the test system is MCF7. The series can be described thus: Cytotoxicity against human MCF7 cells. The settings on record: read-out: ED50 (the source's name). The class given is functional.
The nature of series [11]: Cytotoxicity against HUVEC cells. In kind it is cell-based. As to conditions: human, read-out: ED50 (the source's name).
Series [12] relates to L1210. As to the kind of experiment: Cytotoxicity against mouse L1210 cells. The class given is functional.
A short description of series [13]: Cytotoxicity against human MEL1 cells. As to conditions: read-out: ED50 (the source's name). In kind it is functional.
A short description of series [14]: Cytotoxicity against human MEL2 cells. The class given is functional. As to conditions: read-out: ED50 (the source's name).

Results on 11 compounds are retold here after ChEMBL document CHEMBL1157282, “Cytotoxic constituents from the stem bark of Dichapetalum gelonioides collected in the Philippines” (J Nat Prod, 2006).

In brackets after ≈: the same amount, converted by molar mass.

For the compound `COc1ccc([C@@H]2CC3=CC[C@]4(C)[C@H]5C[C@@H](O)[C@]67C[C@]6(CC[C@H]7[C@@H]6C[C@H](/C=C(\C)CO)OC6=O)[C@]5(C)[C@H](O)C[C@H]4[C@@]3(C)CO2)cc1` [DICHAPETALIN J], the EC50 in series [1] was more than 20 mg/L; in series [2] it was 4 mg/L (≈ 6.32 µM); in [3], more than 20 mg/L; in series [4] it was 14.5 mg/L (≈ 22.9 µM); in [5] it was 2.1 mg/L (≈ 3.32 µM); in [6], 0.4 mg/L (≈ 0.632 µM). For the same compound, the EC50 is more than 20 mg/L in [7], 16.4 mg/L (≈ 25.9 µM) in series [8] and 16.4 mg/L (≈ 25.9 µM) in series [9].

For `CC1=C(O)C(=O)C[C@@H]2[C@@]3(C)CC[C@](C)(C(=O)O)C[C@@H]3CC[C@]12C`, the EC50 is more than 20 mg/L in series [1]; 10.4 mg/L (≈ 32.5 µM) in series [2]; more than 20 mg/L in series [3]; more than 20 mg/L in series [4]; 11.2 mg/L (≈ 35 µM) in [5]; 15.8 mg/L (≈ 49.3 µM) in [6]. Besides, the EC50 was 12.2 mg/L (≈ 38.1 µM) in series [7], 10.8 mg/L (≈ 33.7 µM) in [8] and 16.2 mg/L (≈ 50.6 µM) in [9].

For `C[C@H]1C(=O)CC[C@H]2[C@]3(C)CC[C@@]4(C)[C@@H]5CC(C)(C)CC[C@]5(CO)CC[C@]4(C)[C@H]3C[C@@H](O)[C@]12C`, the EC50 was more than 20 mg/L in [1]; 13 mg/L (≈ 28.3 µM) in [2]; more than 20 mg/L in series [3]; more than 20 mg/L in series [4]; more than 20 mg/L in series [5]; more than 20 mg/L in series [6]. For the same compound, the EC50 in series [7], in [8] and in series [9] was more than 20 mg/L in each case.

Take `C/C(=C\[C@H]1C[C@@H]([C@@H]2CC[C@]34C[C@]23CC[C@@H]2[C@@]3(C)CC=C5C[C@@H](c6ccccc6)OC[C@]5(C)[C@@H]3C[C@@H](O)[C@]24C)C(=O)O1)CO` [DICHAPETALIN L]: the EC50 in [4] was 1 mg/L (≈ 1.7 µM); in series [6], 8.3 mg/L (≈ 14.1 µM); in [8] it was 1.1 mg/L (≈ 1.87 µM); in series [10] it was 2.1 mg/L (≈ 3.58 µM). The CC50 in [11] is 4.2 mg/L (≈ 7.16 µM).

By EC90 is commonly meant the concentration at which the effect reaches the 90% level. Low values mean greater potency, high ones weaker potency. On to `C/C(=C\[C@H]1C[C@@H]([C@@H]2CC[C@]34C[C@]23C=C[C@@H]2[C@@]3(C)CC=C5C[C@@H](c6ccccc6)OC[C@]5(C)[C@@H]3C[C@@H](O)[C@]24C)C(=O)O1)CO` [DICHAPETALIN A], for which the EC50 in series [1] is 11.6 mg/L; in series [2] it was 6.9 mg/L (≈ 11.8 µM); in [3], more than 20 mg/L; in series [4] it was 4.1 mg/L (≈ 7.01 µM); in series [5], 6.1 mg/L (≈ 10.4 µM); in [6], 0.2 mg/L (≈ 0.342 µM). The EC50 in [7] is more than 20 mg/L; in series [8], 7 mg/L (≈ 12 µM); in [10] it was 2.1 mg/L (≈ 3.59 µM); in series [9], 3.6 mg/L (≈ 6.16 µM). In [12], this compound had an EC90 of less than 0.0001 mg/L. The CC50 in series [11] came out at 5.5 mg/L (≈ 9.4 µM).

`C/C(=C\[C@H]1C[C@@H]([C@@H]2CC[C@]34C[C@]23[C@H](O)C[C@@H]2[C@@]3(C)CC=C5C[C@@H](c6ccccc6)OC[C@]5(C)[C@@H]3C[C@@H](O)[C@]24C)C(=O)O1)CO` [DICHAPETALIN I]: the EC50 in [1] is more than 20 mg/L; in series [2] it was 9.9 mg/L (≈ 16.4 µM); in series [3], more than 20 mg/L; in [4] it was 7.6 mg/L (≈ 12.6 µM); in series [5], 4.1 mg/L (≈ 6.8 µM); in series [6], 0.5 mg/L (≈ 0.829 µM). For the same compound, the EC50 in series [7] is more than 20 mg/L; in series [8], more than 20 mg/L; in series [9], 16.6 mg/L (≈ 27.5 µM).

Take `C=C(C)[C@@H]1CC[C@]2(C(=O)O)CC[C@]3(C)[C@H](CC[C@@H]4[C@@]5(C)CC[C@H](O)C(C)(C)[C@@H]5CC[C@]43C)[C@@H]12` [BETULINIC ACID]: the EC50 in series [1], in series [2], in series [3], in series [4], in [5] and in series [6] was more than 20 mg/L each time. For the same compound, the EC50 in series [7] was more than 20 mg/L; in [8], more than 20 mg/L; in [13], 1.1 mg/L (≈ 2.41 µM); in series [14], 2 mg/L (≈ 4.38 µM); in series [9], more than 20 mg/L.

Turning to `C=C1C(=O)C(O)=C[C@@H]2[C@@]3(C)CC[C@](C)(C(=O)O)C[C@@H]3CC[C@]12C`, the EC50 in series [1] came out at 4.3 mg/L; in series [2] it was 9 mg/L (≈ 28.3 µM); in [3], 5 mg/L (≈ 15.7 µM); in series [4] it was 3.8 mg/L (≈ 11.9 µM); in [5], 2.7 mg/L (≈ 8.48 µM); in [6], 5 mg/L (≈ 15.7 µM). Besides, the values for the EC50 in series [7], in series [8] and in series [9] were 4 mg/L (≈ 12.6 µM), 3.7 mg/L (≈ 11.6 µM) and 3.7 mg/L (≈ 11.6 µM), respectively.

As to `COc1ccc([C@@H]2CC3=CC[C@]4(C)[C@H]5C=C[C@]67C[C@]6(CC[C@H]7[C@@H]6C[C@H](/C=C(\C)CO)OC6=O)[C@]5(C)[C@H](O)C[C@H]4[C@@]3(C)CO2)cc1` [DICHAPETALIN K], the EC50 in series [4] worked out at 1 mg/L (≈ 1.63 µM); in series [6], 3 mg/L (≈ 4.88 µM); in series [8], 2.6 mg/L (≈ 4.23 µM); in series [10], 1 mg/L (≈ 1.63 µM). In addition, the CC50 in series [11] is 2.2 mg/L (≈ 3.58 µM).

Regarding `C=C1C(=O)C(O)=C[C@@H]2[C@@]3(C)CC[C@](C)(C(=O)OC)C[C@@H]3CC[C@]12C`, the EC50 in [1] stood at 1.7 mg/L; in series [2], 0.8 mg/L (≈ 2.41 µM); in series [3], 1.8 mg/L (≈ 5.41 µM); in [4] it was 1.6 mg/L (≈ 4.81 µM); in series [5] it was 0.8 mg/L (≈ 2.41 µM); in [6], 1.6 mg/L (≈ 4.81 µM). In addition, the EC50 in series [7] turned out to be 0.6 mg/L (≈ 1.8 µM); in series [8], 0.9 mg/L (≈ 2.71 µM); in series [9] it was 0.7 mg/L (≈ 2.11 µM).

For the compound `C[C@H]1C(=O)CC[C@H]2[C@]3(C)CC[C@@]4(C)[C@@H]5CC(C)(C)CC[C@]5(C)CC[C@]4(C)[C@H]3C[C@@H](O)[C@]12C` [ZEYLANOL], the EC50 in series [1] is more than 20 mg/L; in series [2] it was 16.8 mg/L (≈ 37.9 µM); in series [3], more than 20 mg/L; in series [4], 10.9 mg/L (≈ 24.6 µM); in series [5], more than 20 mg/L; in series [6] it was more than 20 mg/L. For the same compound, the EC50 in series [7] and in series [9] was more than 20 mg/L in each case.
